Values of other authors, collected in doi:10.1101/2024.08.20.608791v1 (bioRxiv, 2024).

What was measured:
[1] = assay not specified
[2] = oral bioavailability in animals, species not stated
[3] = <LOQ
[4] = test system: Caco-2

| Structure (SMILES) | in vitro permeability (in words) [1] | observed F in animals [2] | solubility in water (in words) [3] | Caco-2 permeability (in words) ([4]; Caco-2 experiments) | fa predicted using the Caco-2 assay ([4]; underprediction of human fa from Caco-2) [%] | calculated log P (calculated) | experimentally determined log P (experimental) |
| --- | --- | --- | --- | --- | --- | --- | --- |
| CC(=O)O[C@H]1C(=O)[C@@]2(C)[C@H]([C@H](OC(=O)c3ccccc3)[C@]34OC(=O)O[C@H]3[C@H](OC(=O)[C@H](O)[C@H](CC(C)C)NC(=O)OC(C)(C)C)C(C)=C1C4(C)C)[C@]1(OC(C)=O)CO[C@@H]1C[C@@H]2O [ortataxel] | moderate in vitro permeability | 25% |  |  |  |  |  |
| CC[C@@H]1C[C@]1(NC(=O)[C@@H]1C[C@@H](Oc2cc(-c3csc(NC(C)C)n3)nc3c(Cl)c(OCCN4CCOCC4)ccc23)CN1C(=O)[C@@H](NC(=O)O[C@@H]1C[C@@H]2C[C@@H]2C1)C(C)(C)C)C(=O)O [vedroprevir] | low in vitro permeability | 49-123% | practically insoluble in water |  |  |  |  |
| C[C@H]1O[C@@H](O[C@H]2[C@@H](O)C[C@H](O[C@H]3[C@@H](O)C[C@H](O[C@H]4CC[C@@]5(C)[C@H](CC[C@@H]6[C@@H]5C[C@@H](O)[C@]5(C)[C@@H](C7=CC(=O)OC7)CC[C@]65O)C4)O[C@@H]3C)O[C@@H]2C)C[C@H](O)[C@@H]1O [Digoxin] |  |  |  | moderate permeability | ~50 |  |  |
| CC[C@@H]([C@H](C)O)n1ncn(-c2ccc(N3CCN(c4ccc(OC[C@@H]5CO[C@@](Cn6cncn6)(c6ccc(F)cc6F)C5)cc4)CC3)cc2)c1=O [posaconazole] | high in vitro permeability | 52% | practically insoluble in water |  |  | 5.4 | 2.4 |
